From paper PMC12865225 (Clinical and Translational Science, 2026)

How the values were obtained:
OATP2B1 = target: T1, OATP2B1 (Homo sapiens, UniProt O94956); assay: OATP2B1 inhibition with fluorescent substrate 4′,5′-dibromofluorescein in HEK293 cells; type: cell-based; conditions: 1 µM 4′,5′-dibromofluorescein, 5 min, 30 min preincubation
T1 construct: expressed in transfected cells; host or cells: HEK293 (recombinant baculovirus-mediated transduction)
T1 sequence (O94956 1-709): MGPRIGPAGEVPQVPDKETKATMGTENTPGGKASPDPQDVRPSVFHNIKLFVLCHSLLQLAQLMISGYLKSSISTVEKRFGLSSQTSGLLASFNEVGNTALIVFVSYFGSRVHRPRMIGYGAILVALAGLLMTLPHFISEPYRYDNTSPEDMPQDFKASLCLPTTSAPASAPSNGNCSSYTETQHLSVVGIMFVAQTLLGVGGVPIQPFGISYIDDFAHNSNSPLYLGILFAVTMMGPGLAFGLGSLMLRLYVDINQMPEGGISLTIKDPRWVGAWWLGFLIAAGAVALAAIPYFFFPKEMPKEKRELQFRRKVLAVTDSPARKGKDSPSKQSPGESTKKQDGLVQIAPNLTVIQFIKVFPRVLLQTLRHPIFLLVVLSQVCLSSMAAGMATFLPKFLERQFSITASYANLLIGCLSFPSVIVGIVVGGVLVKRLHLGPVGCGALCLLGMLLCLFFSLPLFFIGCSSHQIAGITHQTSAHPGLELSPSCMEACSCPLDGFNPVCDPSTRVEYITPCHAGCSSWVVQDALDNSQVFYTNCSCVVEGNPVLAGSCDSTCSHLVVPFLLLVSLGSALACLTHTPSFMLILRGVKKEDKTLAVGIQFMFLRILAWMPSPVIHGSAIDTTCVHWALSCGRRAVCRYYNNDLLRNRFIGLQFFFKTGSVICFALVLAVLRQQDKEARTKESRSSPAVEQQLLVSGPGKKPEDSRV
Experimental: 8- (2- [Fluoresceinyl]aminoethylthio)adenosine- 3', 5'- cyclic monophosphate (8-Fluo-cAMP) was acquired from Biolog Life Science Institute (Bremen, Germany), 4′,5′-dibromofluorescein was acquired from Sigma-Aldrich (St. Louis, MO, USA) and 2′,7′-dichlorofluorescein was acquired from Santa Cruz Biotechnology (Dallas, TX, USA).
Inhibition studies with fluorescent substrates in OATP transduced HEK293 cells The concentrations of fluorescent probe substrates were 1 µM 2′,7′-dichlorofluorescein for OATP1B1, 2.5 µM 8-Fluo-cAMP for OATP1B3 and 1 µM 4′,5′-dibromofluorescein for OATP2B1, and these concentrations were selected to be within or below of previously reported […]
reported linear ranges of transport for these substrate-transporter combinations.1,2,4 8-Fluo-cAMP was dissolved in ultrapure water, while dimethyl sulfoxide (DMSO) was used for all other compounds. […] For the quantification of fluorescent substrates, cells were lysed with 120 µl of lysis solution (1% Triton X-100, 5 mM EDTA, 150 mM sodium chloride and 150 mM TRIC-hydrochloride and adjusted to pH 8 with sodium hydroxide) for 30 min at 300 RPM shaking before transferring 80 µl of samples to a transparent 96-well plate containing 20 µl of 0.5 M sodium hydroxide. […] The plates were measured with a fluorescent plate reader (Varioskan LUX from ThermoFisher Scientific). […]

OAT1 = tested on: T2, OAT1; assay: Uptake transport assay in OAT1-expressing HEK293 cells; type: cell-based, human; conditions: 2 and 50 μM, 10 min
T2 construct: expressed in transfected cells; host or cells: HEK293 (recombinant baculovirus-mediated transduction)
Experimental: The human transporters OATP1B1, OATP1B3, OATP2B1, and OAT1‐OAT4 and a negative control protein (enhanced yellow fluorescent protein, eYFP) were transiently expressed in human embryonic kidney 293 (HEK293) cells by recombinant baculovirus‐mediated transduction. Baculoviruses carrying human genes for the transporters were prepared as reported previously. HEK293 cells were cultured in DMEM containing 10% fetal bovine serum at 37°C and 5% CO2 and passaged two to three times per week. For the transport studies, 0.05 × 10^6 cells for 48‐well plates (OATPs) or 0.06 × 10^6 cells for 24‐well plates (OATs) were seeded onto cell‐culture treated well plates coated with poly‐D‐lysine. After 1 day, cells were transduced to produce recombinant proteins by changing media to DMEM containing 30 μL (48‐well plates) or 60 μL (24‐well plates) of recombinant baculovirus and 3 mM (OATs) or 5 mM (OATPs) sodium butyrate in a total media volume of 500 μL. The cells were cultured for a further 2 days before the transport assays.
For the transport studies, media were removed and cells were washed once with warm transport uptake buffer (TP‐buffer—pH 7.4 HBSS with 25 mM HEPES and 4 mM sodium bicarbonate). Each experiment included triplicate (OATP) or duplicate (OAT) samples for every test condition. […]

MRP4 = tested on: T3, MRP4; assay: Efflux transport assay in MRP4 HEK293 membrane vesicles; type: biochemical, human; conditions: 5 and 50 µM, 10 min
T3 construct: expressed in transfected cells; host or cells: HEK293 cells

| IC50 (OATP2B1) | transport by OAT1 (OAT1) | transport by MRP4 (MRP4) | SMILES |
| --- | --- | --- | --- |
| 37.6 µM | transported | did not transport | Cc1onc(-c2c(Cl)cccc2Cl)c1C(=O)N[C@@H]1C(=O)N2[C@@H]1SC(C)(C)[C@@H]2C(=O)O [Dicloxacillin] |
| 76.4 µM | transported | did not transport | Cc1onc(-c2c(F)cccc2Cl)c1C(=O)N[C@@H]1C(=O)N2[C@@H]1SC(C)(C)[C@@H]2C(=O)O [Flucloxacillin] |
